Ends that are not written are not given here.
Key:
[1] = system: isolated jejunal segments from egg albumin-sensitised rats; experiment: antigen-induced contraction of isolated jejunal segments, Examples 3 and 6; design: species or system rat; key to Biological Activity = inhibition of antigen-induced jejunal contraction by test peptide: +++ = highest inhibition (~60%); ++ = moderate inhibition (~40%); + = lowest inhibition (~20%); − = no inhibition
Experimental: SGP-T, at doses as low as 6.8×10^−7M, reduced antigen induced contractions of these isolated intestinal tissues by 60% (data not shown).
Analogues and fragments of SGP-T were tested for their ability to inhibit antigen (egg albumin)-induced intestinal contractions, using isolated jejunal segments from egg albumin-sensitised rats, as described in Example 3.

[2] = system: jejunal segments from ovalbumin-sensitized rats; experiment: antigen-induced jejunal segment contraction, URE/OA ratio, Example 7; design: species or system rat; settings: 10 μg peptide; for URE/OA: 100 ng OA, 20 μg urecholine
Experimental: Animals and Tissue Preparation: Male Sprague-Dawley rats were sensitized to egg albumin (ovalbumin, OA) with 50 ng of Pertussis bordetella toxin as an adjuvant. Four to six weeks after sensitization, the rats were anaethetised with sodium pentobarbital and the jejunum was removed. Two cm sections of the jejunum were mounted in tissue baths under 0.75 g of isometric tension, and the tissues were allowed to equilibrate for 20 min prior to beginning the experiment.
10 μg of SGP-T or one of its analogues or fragments was added to a bath, while control tissues received the saline vehicle. Following a 10 min incubation, 100 ng of OA prepared in 0.9% saline was added. After the tissue had reached a maximal contractile response, the tissues were washed extensively to remove OA and peptide and, after the tissues had established baseline tension, 20 μg of urecholine (URE; a cholinergic-muscarinic receptor agonist) was added to determine the maximal contractile response of the tissue. The tissues were then removed from the bath, cleared of all underlying mucosa and the weight of the remaining muscle was determined.
Data Analysis: The tension (measured in grams) per gram tissue weight generated by each tissue in response to OA and URE was calculated. To normalize for differences in the ability of each tissue segment to contract in response to the muscle stimulants, the contractile response to […]. Thus, a measure of the antigen-induced contraction was expressed as the URE/OA ratio.
The data was analyzed using the one-way analysis of variance (ANOVA) and differences between groups was determined using the Student t-test for unpaired samples. The results are shown in FIGS. 7 and 8 and Tables 3 and 4.

[3] = system: LPS (Salmonella typhosa)-induced hypotension in unoperated rats; experiment: endotoxin (LPS)-induced hypotension, unoperated rats; format: in vivo, rat
Experimental: (§1) The animal model of endotoxic shock used involves intravenous injection of endotoxin (3.5 mg/kg of lipopolysaccharide (LPS) from Salmonella typhosa) into pentobarbital-anaesthetized Sprague-Dawley rats, to produce a fall in mean arterial blood pressure within 3 to 5 minutes. The endotoxin was injected slowly over 1 min. via the jugular vein, and mean arterial blood pressure in mm mercury (MABP) was monitored continuously for 60 min, with the average blood pressure being calculated at 15, 30, 45 and 60 min. Studies were performed on unoperated rats and rats with their submandibular glands removed (sialadenectomized).
(§2) The results shown in Table 1 are the averages of three different experiments using the protocol defined above. The data shown represent the average decrease in MABP (dec MABP) and the % Decrease in MABP over the 60 minutes following LPS administration. SGP-S (100μg/kg) and SGP-T (100 μg/kg) were administered 90 min. before LPS. […] Neither SGP-T nor SGP-S, when given prior to the LPS challenge, had appreciable effects on MABP.
Overall, SGP-T reduced by 60% the decrease and the percent decrease in MABP induced by endotoxin, relative to pre-LPS values. SGP-S, on the other hand, had no effect on the shock induced by endotoxin in unoperated rats.
(§3) The dose-response relationship of the inhibitory effect of SGP-T and SGP-S on endotoxin-induced hypotension was also examined and the results are shown in FIG. 1.

[4] = system: LPS (Salmonella typhosa)-induced hypotension in sialadenectomized rats; experiment: endotoxin (LPS)-induced hypotension, sialadenectomized rats; format: in vivo, rat
Experimental: as §1, §2, §3

[5] = peptide 100 μg/kg 90 min before LPS 3.5 mg/kg iv

Substance | Biological Activity = inhibition of antigen-induced jejunal contraction by test peptide [1] | URE/OA ([2]; Table 3, saline 4.0 ± 0.4) | anti-anaphylactic activity in jejunal assay, in words [2] | further results
TDIAEGG [T11, alanine analogue of SGP-T] | − | 5.2 ± 1.2 |  | 
FE-Sarcosine |  |  |  | URE/OA ([2]; Table 4, saline 5.7 ± 1.0): 10.0 ± 1.6
FE-Proline |  |  | loss of biological activity | URE/OA ([2]; Table 4, saline 5.7 ± 1.0): 6.2 ± 1.3
FEGGG [T6] | ++ (++ = moderate inhibition (~40%)) | 10.7 ± 2.0 | no effect on activity | 
FEG | ++ (++ = moderate inhibition (~40%)) |  |  | 
ADIFEGG [T3, alanine analogue of SGP-T] | − | 3.6 ± 0.9 |  | 
STDIFEGG [T2, analogue of SGP-T] | − | 3.58 ± 1.07 |  | 
TDIFAGG [T9, alanine analogue of SGP-T] | − | 7.2 ± 1.1 |  | 
TAIFEGG [T7, alanine analogue of SGP-T] | +++ (+++ = highest inhibition (~60%)) | 12.3 ± 2.2 | minimal effect on prevention of anaphylaxis | 
FE-Citrulline |  |  | loss of biological activity | URE/OA ([2]; Table 4, saline 5.7 ± 1.0): 5.0 ± 1.1
TDIFEGG-NH2 [T5, SGP-T with amidated terminal glycine] | − | 4.3 ± 0.7 | abolished anti-anaphylactic activity | 
NH2-Ser-Gly-Glu-Gly-Val-Arg-COOH (H-SGEGVR-OH) [SGP-S, submandibular gland peptide S, SGEGVR] |  |  |  | effect on drop in MABP / shock induced by endotoxin [3]: no effect; % Dec = percent decrease in MABP relative to MABPbef [3, 5]: −22.9 ± 1.3%; MABPaft = average MABP for 60 mins after LPS injection [3, 5]: 95.2 ± 4.3 mm Hg; dec MABP = decrease in MABP after LPS relative to MABPbef [3, 5]: −28.1 ± 1.8 mm Hg; effect on drop in MABP after LPS [4]: significantly reduced the drop in MABP; % Dec = percent decrease in MABP relative to MABPbef [4, 5]: −32.3 ± 3.9 %; MABPaft = average MABP for 60 mins after LPS injection [4, 5]: 81.6 ± 5.8 mm Hg; dec MABP = decrease in MABP after LPS relative to MABPbef [4, 5]: −37.6 ± 4.4 mm Hg
TDAFEGG [T10, alanine analogue of SGP-T] | + (+ = lowest inhibition (~20%)) | 8.3 ± 1.9 | minimal effect on prevention of anaphylaxis | 
TDIFE [T4] | − | 1.7 ± 0.3 | abolished anti-anaphylactic activity | 
